Test results published in patent publication US12180172B1, “[3-(4-Methoxyphenyl)-1,2,4-oxadiazol-5-yl]methanol as an antitumor and antimicrobial compound” (KING FAISAL UNIVERSITY, priority 2023, dated 2024).

Key:
Format in all cases: cell-based
[1] = system: human prostate cancer cells (PC3); test: Cytotoxicity by SRB assay, PC3; conditions: 0.01 μM to 100 μM for 72 h
Protocol: (§1) The human prostate cancer cells (PC3) and human osteosarcoma cells (MG-63) were obtained from Nawah Scientific Inc. (Mokatam, Cairo, Egypt) and cultured in DMEM (Dulbecco's modified eagle's medium), Gibco, USA, supplemented with fetal bovine serum (FBS) at a concentration of 10% and 100 U/mL of penicillin and streptomycin (PS). The Cells were incubated at 37° C. in a humidified environment that contained 5% CO2. Cells were seeded in 96-well plates as aliquots of 100 μL cell suspension and incubated in a complete media for 24 h. afterward, cells were treated with [3-(4-methoxyphenyl)-1,2,4-oxadiazol-5-yl]methanol at diverse concentrations ranging from 0.01 μM to 100 μM for 72 h. Then, cells were fixed at 4° C. for one hour with 150 μL of 10% trichloroacetic acid (TCA). After washing the cells five times with distilled water, 70 μL of sulforhodamine (SRB) solution (0.4% w/v) was added and incubated for 10 min at room temperature in a dark place. […] Then, 150 μL of Tris pH 10.5 (10 mM) was added, and the absorbance was measured at 540 nm using a BMG LABTECH®-FLUOstar Omega microplate reader (Ortenberg, Germany). Half maximal inhibitory concentrations (IC50) values were calculated for each experiment using GraphPad Prism 6 software. […] The inhibition was calculated using the following equation: Inhibition %=100−Average Viability

[2] = system: Aspergillus flavus; test: Agar plate disc-diffusion, Aspergillus flavus; conditions: fungus; disc 10 μL of 10 mg/mL in DMSO, 72 h
Protocol: (§2) The antimicrobial properties of the synthesized compounds were studied by the method of agar plate disc-diffusion. Sterilized filter papers (6 mm in diameter) were wetted with 10 μL of a solution of each compound to be tested, containing 10 mg/mL in DMSO, and the discs were allowed to air dry. The discs were then placed onto the surface of agar plates (nutrient agar for bacteria and Sabouraud's dextrose agar for fungi) seeded with the test organism. Each plate contained 15 mL of the agar medium, previously seeded with 0.2 mL of the broth culture of each organism pregrown for 18 h. The plates were incubated at 37° C. for 48 h, and 72 h for fungi. The inhibition zones were measured in mm. Discs impregnated with DMSO were used as a control, and its inhibition zone was subtracted from the tested compound actual inhibition zone.

[3] = system: human osteosarcoma cells (MG-63); test: Cytotoxicity by SRB assay, MG-63; conditions: MG-63 cells, 0.01 μM to 100 μM for 72 h
Protocol: as §1

[4] = system: Staphylococcus aureus; test: Agar plate disc-diffusion, Staphylococcus aureus; conditions: gram positive; disc 10 μL of 10 mg/mL in DMSO, 37° C., 48 h
Protocol: as §2

[5] = system: Escherichia coli; test: Agar plate disc-diffusion, Escherichia coli; conditions: gram-negative; disc 10 μL of 10 mg/mL in DMSO, 37° C., 48 h
Protocol: as §2

[6] = system: Chrysosporium keratinophilum; test: Agar plate disc-diffusion, Chrysosporium keratinophilum; conditions: fungus; disc 10 μL of 10 mg/mL in DMSO, 72 h
Protocol: as §2

[7] = system: Bacillus cereus; test: Agar plate disc-diffusion, Bacillus cereus; conditions: gram positive; disc 10 μL of 10 mg/mL in DMSO, 37° C., 48 h
Protocol: as §2

[8] = system: Pseudomonas aeruginosa; test: Agar plate disc-diffusion, Pseudomonas aeruginosa; conditions: gram-negative; disc 10 μL of 10 mg/mL in DMSO, 37° C., 48 h
Protocol: as §2

COc1ccc(-c2noc(CO)n2)cc1 [[3-(4-methoxyphenyl)-1,2,4-oxadiazol-5-yl]methanol]
antiproliferative activity [1]: excellent antiproliferative activities
antifungal activity [2]: high antimicrobial activities
antiproliferative activity [3]: excellent antiproliferative activities
antibacterial activity [4]: high antimicrobial activities
antibacterial activity [5]: high antimicrobial activities
antifungal activity [6]: high antimicrobial activities
antibacterial activity [7]: high antimicrobial activities
antibacterial activity [8]: high antimicrobial activities
